Measurements taken from patent publication US9957264B2 (Merck Sharp & Dohme Corp., priority 2013, dated 2018).

Columns and labels:
[1] = target: JAK2 (recombinant purified GST-tagged catalytic domain) (Homo sapiens (Human), UniProt O60674); assay: Jak Biochemical HTRF Assay (JAK2); settings: [ATP] 8.5 μM
[2] = target: JAK1 (recombinant purified GST-tagged catalytic domain) (Homo sapiens (Human), UniProt P23458); assay: Jak Biochemical HTRF Assay (JAK1); settings: [ATP] 31.8 μM
Method in brief: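 Under a 120 min room-temperature, ATP-initiated reaction, peptide phosphorylation was detected by Eu-pY20/streptavidin-Dylight 650 HTRF after EDTA stop. IC50 values derive from percent inhibition curves.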

JAK1 (recombinant purified GST-tagged catalytic domain), sequence (P23458 875-1153): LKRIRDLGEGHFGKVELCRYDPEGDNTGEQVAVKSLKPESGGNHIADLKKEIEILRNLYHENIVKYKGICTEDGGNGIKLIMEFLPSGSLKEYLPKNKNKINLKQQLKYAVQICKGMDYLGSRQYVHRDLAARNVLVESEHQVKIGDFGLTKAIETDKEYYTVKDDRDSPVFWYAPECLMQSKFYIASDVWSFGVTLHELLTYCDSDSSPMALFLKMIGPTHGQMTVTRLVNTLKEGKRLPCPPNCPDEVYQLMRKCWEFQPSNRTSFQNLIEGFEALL
JAK2 (recombinant purified GST-tagged catalytic domain), sequence (O60674 849-1124): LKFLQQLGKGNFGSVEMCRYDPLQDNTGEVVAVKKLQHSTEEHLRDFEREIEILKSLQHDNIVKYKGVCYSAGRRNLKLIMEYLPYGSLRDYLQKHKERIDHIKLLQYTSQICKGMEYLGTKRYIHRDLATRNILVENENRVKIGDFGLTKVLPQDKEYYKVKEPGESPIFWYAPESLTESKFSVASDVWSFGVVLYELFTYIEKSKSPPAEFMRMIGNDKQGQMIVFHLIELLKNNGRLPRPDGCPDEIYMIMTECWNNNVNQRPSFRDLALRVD

Structure (SMILES) | IC50 [1] | IC50 [2]
Cc1cc(Nc2nn([C@]3(CC#N)CC[C@@H](C(=O)OC(C)(C)C)OC3)c3cc[nH]c(=O)c23)ccc1C(=O)N1CCOCC1C (single isomer, unassigned) [Example 20-8, (2S,5S)-tert-butyl 5-(cyanomethyl)-5-(3-((3-methyl-4-((S or R)-3-methylmorpholine-4-carbonyl)phenyl)amino)-4-oxo-4,5-dihydro-1H-pyrazolo[4,3-c]pyridin-1-yl)tetrahydro-2H-pyran-2-carboxylate] | 0.16 nM | 0.15 nM
Cc1cc(Nc2nn([C@]3(CC#N)CC[C@@H](C(=O)OC(C)(C)C)OC3)c3cc[nH]c(=O)c23)ccc1C(=O)N1CC(C)OC(C)C1 (single isomer, unassigned) [Example 20-13, (2S,5S)-tert-butyl 5-(cyanomethyl)-5-(3-((4-((2S,6S or 2R,6R)-2,6-dimethylmorpholine-4-carbonyl)-3-methylphenyl)amino)-4-oxo-4,5-dihydro-1H-pyrazolo[4,3-c]pyridin-1-yl)tetrahydro-2H-pyran-2-carboxylate] | 0.26 nM | 0.22 nM
CC1(C)CCCN1S(=O)(=O)c1ccc(Nc2nn([C@]3(CC#N)CCCOC3)c3cc[nH]c(=O)c23)cc1 [Example 5-107, {(3S)-3-[3-({4-[(2,2-dimethylpyrrolidin-1-yl)sulfonyl]phenyl}amino)-4-oxo-4,5-dihydro-1H-pyrazolo[4,3-c]pyridin-1-yl]tetrahydro-2H-pyran-3-yl} acetonitrile] | 0.33 nM | 0.2 nM
CS(=O)(=O)c1ccc(Nc2nn([C@]3(CC#N)CCCOC3)c3cc[nH]c(=O)c23)cc1 [Example 5-31, (S)-2-(3-(3-((4-(methylsulfonyl)phenyl)amino)-4-oxo-4,5-dihydro-1H-pyrazolo [4,3-c]pyridin-1-yl)tetrahydro-2H-pyran-3-yl)acetonitrile] | 1.64 nM | 0.26 nM
N#CCC1(n2nc(Nc3ccc(F)cc3)c3c(=O)[nH]ccc32)CCNCC1 [Example 6, (4-{3-[(4-fluorophenyl)amino]-4-oxo-4,5-dihydro-1H-pyrazolo[4,3-c]pyridin-1-yl}piperidin-4-yl)acetonitrile] | > 1500 nM | 421 nM
CC(C)(C)OC(=O)[C@@H]1CC[C@@](CC#N)(n2nc(Nc3ccc(S(C)(=O)=O)cc3)c3c(=O)[nH]ccc32)CO1 (racemic) [Example 5-36, (2S,5S and 2R,5R)-tert-butyl 5-(cyanomethyl)-5-(3-((4-(methylsulfonyl)phenyl)amino)-4-oxo-4,5-dihydro-1H-pyrazolo[4,3-c]pyridin-1-yl)tetrahydro-2H-pyran-2-carboxylate] | 0.34 nM | 0.09 nM
CC(C)(C)OC(=O)N1CCC(CC#N)(n2nc(Nc3ccccc3)c3c(=O)[nH]ccc32)CC1 [Example 1-2, tert-butyl 4-(cyanomethyl)-4-(4-oxo-3-(phenylamino)-4,5-dihydro-1H-pyrazolo[4,3-c]pyridin-1-yl)piperidine-1-carboxylate] | 11.9 nM | 0.45 nM
CC(C)(C)OC(=O)[C@@H]1CC[C@@](CC#N)(n2nc(Nc3ccc(C(C)(O)C(F)(F)F)cc3)c3c(=O)[nH]ccc32)CO1 (single isomer, unassigned) [Example 5-171, (2S,5S)-tert-butyl 5-(cyanomethyl)-5-(4-oxo-3-((4-((S or R)-1,1,1-trifluoro-2-hydroxypropan-2-yl)phenyl)amino)-4,5-dihydro-1H-pyrazolo[4,3-c]pyridin-1-yl)tetrahydro-2H-pyran-2-carboxylate] | 0.18 nM | 0.07 nM

Second part, the molecule after the results:

IC50 [1] | IC50 [2] | Structure (SMILES)
1.14 nM | 0.75 nM | COC(C)(c1ccc(Nc2nn([C@]3(CC#N)CC[C@@H](C(=O)OC(C)(C)C)OC3)c3cc[nH]c(=O)c23)cc1)C(F)(F)F (single isomer, unassigned) [Example 5-172, (2S,5S)-tert-butyl 5-(cyanomethyl)-5-(4-oxo-3-((4-((S or R)-1,1,1-trifluoro-2-methoxypropan-2-yl)phenyl)amino)-4,5-dihydro-1H-pyrazolo[4,3-c]pyridin-1-yl)tetrahydro-2H-pyran-2-carboxylate]
0.08 nM | 0.08 nM | CC(C)(C)OC(=O)N1CC[C@](CC#N)(n2nc(Nc3ccccc3)c3c(=O)[nH]ccc32)[C@H](F)C1 [Example 5-19, tert-butyl (3R,4R)-4-(cyanomethyl)-3-fluoro-4-[4-oxo-3-(phenyl-amino)-4,5-dihydro-1H-pyrazolo[4,3-c]pyridin-1-yl]piperidine-1-carboxylate]
0.24 nM | 0.11 nM | CN(C)S(=O)(=O)c1ccc(Nc2nn(C3(CC#N)CCN(C(=O)OCC(F)(F)F)CC3)c3cc[nH]c(=O)c23)cc1 [Example 12, 2,2,2-trifluoroethyl 4-(cyanomethyl)-4-(3-((4-(N,N-dimethylsulfamoyl)phenyl)amino)-4-oxo-4,5-dihydro-1H-pyrazolo[4,3-c]pyridin-1-yl)piperidine-1-carboxylate]
1.22 nM | 0.19 nM | COC(=O)N1CCC(CC#N)(n2nc(Nc3ccc(C#N)cc3)c3c(=O)[nH]ccc32)CC1 [Example 5-145, methyl 4-(cyanomethyl)-4-(3-((4-cyanophenyl)amino)-4-oxo-4,5-dihydro-1H-pyrazolo[4,3-c]pyridin-1-yl)piperidine-1-carboxylate]
3 nM | 0.36 nM | N#CC[C@@]1(n2nc(Nc3ccc(C4(C(F)(F)F)CC4)cc3)c3c(=O)[nH]ccc32)CCCOC1 [Example 5-224, (S)-2-(3-(4-oxo-3-((4-(1-(trifluoromethyl)cyclopropyl)phenyl)amino)-4,5-dihydro-1H-pyrazolo[4,3-c]pyridin-1-yl)tetrahydro-2H-pyran-3-yl)acetonitrile]
0.12 nM | 0.19 nM | CC(c1ccc(Nc2nn([C@]3(CC#N)CC[C@@H](C(=O)OC(C)(C)C)OC3)c3cc[nH]c(=O)c23)cc1)N1CCCC1 (single isomer, unassigned) [Example 5-211, (2S,5S)-tert-butyl 5-(cyanomethyl)-5-(4-oxo-3-((4-((S or R)-1-(pyrrolidin-1-yl)ethyl)phenyl)amino)-4,5-dihydro-1H-pyrazolo [4,3-c]pyridin-1-yl) tetrahydro-2H-pyran-2-carboxylate]
0.45 nM | 0.25 nM | Cc1cc(Nc2nn([C@]3(CC#N)CC[C@@H](C(=O)OC(C)(C)C)OC3)c3cc[nH]c(=O)c23)ccc1C(=O)N1CC(C)OC(C)C1 (single isomer, unassigned) [Example 20-12, (2S,5S)-tert-butyl 5-(cyanomethyl)-5-(3-((4-((2S,6S or 2R,6R)-2,6-dimethylmorpholine-4-carbonyl)-3-methylphenyl)amino)-4-oxo-4,5-dihydro-1H-pyrazolo[4,3-c]pyridin-1-yl)tetrahydro-2H-pyran-2-carboxylate]
0.43 nM | 0.06 nM | CC(C)(C)OC(=O)[C@@H]1CC[C@@](CC#N)(n2nc(Nc3ccc(S(C)(=O)=O)cc3)c3c(=O)[nH]ccc32)CO1 [Example 5-39, (2S,5S)-tert-butyl 5-(cyanomethyl)-5-(3-((4-(methylsulfonyl)phenyl)amino)-4-oxo-4,5-dihydro-1H-pyrazolo[4,3-c]pyridin-1-yl)tetrahydro-2H-pyran-2-carboxylate]
